Reference: patent US20200237852A1, “Small Molecule Enhancers of Paneth Cell Function and Differentiation” (Massachusetts Institute of Technology, priority 2019, published 2020)

What was measured:
Format in all cases: cell-based, C57BL/6 mice
[1] = test system: organoids differentiated under ENR+CV, ENR+CD, or ENR; experiment: Western blotting for LYZ in organoids; conditions: six days in ENR+CV
Excerpt: ISC-enriched organoids cultured in 3D Matrigel with ENRCV media were passaged to 24-well plate in 3D Matrigel with ENRCV. At day zero, media were replaced to ENR or ENRCD with or without indicated compounds, and media were replaced every other day. At day six, cells were harvested from Matrigel by mechanical disruption and suspended in basal media. Cell pellets were lysed with Pierce® IP lysis buffer (ThermoFisher, 87787) containing Halt™ Protease Inhibitor Cocktail, EDTA-Free (ThermoFisher, 87785) after 3-minute centrifuge at 300×g at 4° C. Cell extracts were resolved by NuPAGE® SDS-PAGE Gel system (ThermoFisher) and electroblotted onto polyvinylidene difluoride membranes using Criterion™ Blotter (Biorad). The membranes were blocked with 2% Blotting-Grade Blocker (Biorad, 1706404) in TBS-T (50 mM Tris-HCl, 150 mM NaCl, and 0.1% Tween 20, pH 8.0) and then probed with appropriate antibodies. Detection was performed using ECL Select™ Western Blotting Detection Reagent (Amersham, 45-000-999) and ImageQuant LAS4000 (GE Healthcare).

[2] = test system: mature PC (CD24-mid & LYZ+) and secretory precursor (CD24-hi) populations; experiment: Flow cytometry profiling of organoids in 2.5-D (CD24, LYZ); conditions: 6-day ENR+CD+treatment, fraction of viable cells, n=3 bio. donors
Excerpt: Cells processed for flow cytometry were first gated to exclude potential debris or doublets (via widely accepted forward and side scatter gating), and subsequently gated for viability (via Zombie-violet viability dye exclusion), all viable cells were considered for CD24 & LYZ expression analysis. […] For flow cytometry profiling of the 6 validate small molecules, ISC-enriched ‘small clusters’ in 3D Matrigel culture were passaged to a “2.5D” 96-well plate culture system for six days of ENR, or ENR+CD+drug culture in the same manner as described previously with the exception of plating in 96-well plates prepared with a polymerized 70% Matrigel coating in each well. Plates were centrifuged at 50 g for 1 min at 4° C. to allow for cells to partially embed in Matrigel coating. Drugs were pinned into their respective wells using the Tecan from a drug stamp plate. Media was changed at day three, including pinning of the drug treatments. At day six, cells were washed 3× with basal media, then harvested from Matrigel by mechanical disruption in TrypLE Express to remove Matrigel and dissociate organoids to single cells. After vigorous pipetting and incubation at 37° C. for 20 mins, dissociated organoids were strained through a 96-well filter plate with a 30-40 μm filter (Pall) into an ultra low-bind 96-well plate (Costar) by centrifuging at 300×g for 3 mins at 4° C. The cell filtrate was centrifuged again at 300×g for 3 mins at 4° C. to pellet the cells. Cell pellets were resuspended in FACS buffer (2% FBS in PBS0), then transferred to an ultra low-bind 96-well plate for flow prep. Cells were stained with Zombie-violet viability dye (BioLegend) at 100× for viability staining and/or antibody staining solution. FITC-conjugated antibody for lysozyme and APC-conjugated antibody for CD24 were used at 100× dilution (BioLegend). Flow cytometry was performed using a LSR Fortessa (BD; Koch Institute Flow Cytometry Core at MIT). Flow cytometry data was analyzed using FlowJo X v10.1 software.

[3] = test system: ENR+CD and ENR organoid populations; experiment: Population RNA-seq of organoids; conditions: 3 days of treatment, all media conditions controlled, FDR<0.01
Excerpt: To further assess the potential interaction of Wnt agonist CHIR99021 (C) and Notch inhibitor DAPT (D) with XPO1 inhibitors, we carried out an experiment where we assessed bulk organoid population transcriptomes (with RNA-seq) from multiple variations on growth media, XPO1 inhibitor, and duration of treatment (FIG. 12A). To characterize the resulting cell phenotypes, we used aggregate scores of geneset enrichment (based on module scoring as implemented in^7) from the in vivo Paneth and related enteroendocrine cell populations (genesets taken from^6). We see that again for both ENR+CD treated (FIG. 12B) and ENR treated (FIG. 12C) organoid populations, XPO1 inhibition drives enrichment in Paneth cell defining genes, principally at 3 days of treatment. […]
Population RNA-seq was performed using a derivative of the Smart-Seq2 protocol for single cells^1,2. […] Libraries were pooled post-Nextera and cleaned using Agencourt AMPure SPRI beads with successive 0.7× and 0.8× ratio SPRIs and sequenced with an Illumina 75 Cycle NextSeq500/550v2 kit (Illumina FC-404-2005) with loading density at 2.2 pM, with paired end 35 cycle read structure. Samples were sequenced at an average read depth of 8.44 million reads per sample and a total of 96 samples. […]

SMILES: O=C(/C=C\n1cnc(-c2cc(C(F)(F)F)cc(C(F)(F)F)c2)n1)NNc1cnccn1 [KPT-330]
- LYZ abundance on a per-mass protein normalized basis (western blot) [1]: appreciably increase LYZ abundance
- mature PC (CD24-mid & LYZ+) population relative to control [2]: statistically significant increase (adj. p<0.01)
- secretory precursor (CD24-hi) population relative to control [2]: trend to a smaller population
- identity of the majority of significantly up-regulated genes relative to no treatment (DESeq2) [3]: known Paneth cell lineage-defining genes
